Measurements reported in patent US10016400B2, “Composition including rapamycin as active ingredient for preventing or treating hearing loss” (AJOU UNIVERSITY INDUSTRY—ACADEMIC COOPERATION FOUNDATION, priority 2014, dated 2018).

Assays:
[1] = system: auditory outer and inner hair cells; assay: Autophagy in cochlear hair cells, immunohistochemistry with LC3 antibodies; format: in vivo; settings: GM treatment, rat cochleae
Experimental: A total of 24 rats were classified into one group of 12 rats treated with 50 pM of rapamycin (RRM) and another group of 12 rats treated with 100 pM of RPM. […] To allow RPM to be well absorbed inside the tympanum, the rats were placed in a lateral decubitus position and stabilized. Meanwhile, rats of which right ears were treated with physiological saline were classified as a control group.
To observe autophagy in the auditory outer hair cells, the cochleae of the rats of Example 1 were subjected to immunohistochemistry using microtubule-associated LC3 (Microtubule-associated protein 1A/1B-light chain 3) antibodies.

HEI-OC1 cells [2] = assay: RPM effects on apoptosis, MTS assay; format: cell-based
Experimental: (§1) An auditory cell line, e.g., House-Ear Institute-organ of Corti 1 (HEI-OC1), that expresses auditory genes was used. HEI-OC1 cells were cultured under conditions of a temperature of 33° C. and a CO2 (10%) by adding 10% fetal bovine serum (FBS) and 25 U/ml interferon-gamma to a Dulbecco's modified Eagle's Medium (DMEM) including high concentrations of glutamine. At about 90% confluence of the cultured cells on a bottom surface of a plate, the cell density was maintained within an appropriate range by performing serial subcultures using 2.5% Trypsin-EDTA.
Here, RPM was used as an inducer of autophagy and chloroquine (CQ) was used as an inhibitor of autophagy in terms of pretreatment and combination treatment.

HEI-OC1 cells [3] = assay: Autophagy in auditory cell line (LC3 staining, western blot, real-time quantitative PCR); format: cell-based; settings: HEI-OC1 cells treated with GM
Experimental: as §1
To observe autophagy in the GM-treated auditory cells, the HEI-OC1 cells, which are the auditory cell line of Example 1-2, were subjected to immunohistochemistry using LC3 antibody, thereby staining autophagosomes, the expression of autophagy-related proteins, e.g., LC3, Beclin-1, and RAS-related GTP-binding proteins (Rab7) was confirmed according to the western blot, and the processes of autophagy were analyzed through real-time quantitative PCR.

[4] = in vivo; cited from earlier work

Molecule: gentamicin [GM]
- autophagosomes having a double membrane in auditory outer and inner hair cells [1]: increase in autophagosomes
- HEI-OC1 cells undergone apoptosis (HEI-OC1 cells [2]; 5 mM of GM for 48 hours): about 25%
- number of autophagosomes (HEI-OC1 cells [3]): increased over time

Molecule: CCN(CC)CCCC(C)Nc1ccnc2cc(Cl)ccc12 (centres unmarked) [CQ, chloroquine]
- apoptosis with GM and autophagy inhibitor (HEI-OC1 cells [2]; 5 mM GM with 25 μM CQ): more likely to be undergone the apoptosis

Molecule: CO[C@H]1C[C@@H]2CC[C@@H](C)[C@@](O)(O2)C(=O)C(=O)N2CCCC[C@H]2C(=O)O[C@H]([C@H](C)C[C@@H]2CC[C@@H](O)[C@H](OC)C2)CC(=O)[C@H](C)/C=C(\C)[C@@H](O)[C@@H](OC)C(=O)[C@H](C)C[C@H](C)/C=C/C=C/C=C/1C [RPM, rapamycin]
- LD50 value (dose lethal to 50% of the population) [4]: at least 2 g/kg
